Experimental data as given in patent US20060069132A1, “Azolecarboxamide herbicides” (priority 2004, published 2006).

Assays:
barnyardgrass [1] = assay: Test B pre-/postemergence herbicide test; format: in vivo, Echinochloa crus-galli; conditions: for Barnyardgrass plant response rating: postemergence, visual rating, scale 0 (no effect) to 100 (complete control)
Procedure, shortened: (§1)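 Visual rating, 0 (no effect) to 100 (complete control), versus untreated controls after 13–15 d in greenhouse. Pre- and postemergence applications (postemergence plants 2–18 cm, 1–4 leaves); flooded paddy arm at 2-leaf stage. Compounds in non-phytotoxic solvent plus surfactant.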

Surinam grass = assay: Test B pre-/postemergence herbicide test; format: in vivo, Urochloa decumbens; conditions: for Surinam Grass plant response rating: postemergence, visual rating, scale 0 (no effect) to 100 (complete control)
Procedure, shortened: (§2)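 Seeds were planted and treated preemergence with compounds formulated in a non-phytotoxic solvent mixture containing surfactant, while plants at the 1- to 4-leaf stage (2 to 18 cm) received postemergence sprays. Flooded paddy plants were grown to the 2-leaf stage. After 13 to 15 days in a greenhouse, injury was visually rated 0–100 against untreated controls.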

cocklebur = assay: Test B pre-/postemergence herbicide test; format: in vivo, Xanthium strumarium; conditions: for Cocklebur plant response rating: postemergence, visual rating, scale 0 (no effect) to 100 (complete control)
Procedure, shortened: as §1

corn = assay: Test B pre-/postemergence herbicide test; format: in vivo, Zea mays; conditions: for Corn plant response rating: postemergence, visual rating, scale 0 (no effect) to 100 (complete control)
Procedure, shortened: as §2

large crabgrass = assay: Test B pre-/postemergence herbicide test; format: in vivo, Digitaria sanguinalis; conditions: for Crabgrass, Large plant response rating: postemergence, visual rating, scale 0 (no effect) to 100 (complete control)
Procedure, shortened: as §2

giant foxtail = assay: Test B pre-/postemergence herbicide test; format: in vivo, Setaria faberi; conditions: for Foxtail, Giant plant response rating: postemergence, visual rating, scale 0 (no effect) to 100 (complete control)
Procedure, shortened: as §2

lambsquarters = assay: Test B pre-/postemergence herbicide test; format: in vivo, Chenopodium album; conditions: for Lambsquarters plant response rating: postemergence, visual rating, scale 0 (no effect) to 100 (complete control)
Procedure, shortened: as §2

morningglory = assay: Test B pre-/postemergence herbicide test; format: in vivo, Ipomoea coccinea; conditions: for Morningglory plant response rating: postemergence, visual rating, scale 0 (no effect) to 100 (complete control)
Procedure, shortened: as §1

pigweed = assay: Test B pre-/postemergence herbicide test; format: in vivo, Amaranthus retroflexus; conditions: for Pigweed plant response rating: postemergence, visual rating, scale 0 (no effect) to 100 (complete control)
Procedure, shortened: as §2

blackgrass = assay: Test B postemergence herbicide test; format: in vivo, Alopecurus myosuroides; conditions: postemergence, visual rating, scale 0 (no effect) to 100 (complete control)
Procedure, shortened: (§3)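 Visual ratings, 0 (no effect) to 100 (complete control), made versus controls after 13–15 d greenhouse. Paddy plants treated at 2-leaf stage; postemergence plants at 1- to 4-leaf stage, 2–18 cm tall.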

wheat = assay: Test B postemergence herbicide test; format: in vivo, Triticum aestivum; parameters: key to Wheat plant response rating: 0 = no effect, 100 = complete control; conditions: postemergence, visual rating, scale 0 (no effect) to 100 (complete control)
Procedure, shortened: (§4)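 Formulated test chemicals went onto postemergence plants measuring 2 to 18 cm, at one to four leaves. For the paddy assay, species had reached two leaves. Scoring took place 13–15 days later by eye, relative to untreated plants, using 0 for no effect up to 100 for full control.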

wild oat = assay: Test B postemergence herbicide test; format: in vivo, Avena fatua; conditions: postemergence, visual rating, scale 0 (no effect) to 100 (complete control)
Procedure, shortened: as §4

rice = assay: Test B flooded paddy test; format: in vivo, Oryza sativa; conditions: 1000 g ai/ha, visual rating, scale 0 to 100 (0 no effect, 100 complete control), 13 to 15 days
Procedure, shortened: as §3

[2] = tested on: small flower umbrella sedge; assay: Test B flooded paddy test; format: in vivo, Cyperus difformis; conditions: 1000 g ai/ha, visual rating, scale 0 to 100 (0 no effect, 100 complete control), 13 to 15 days
Procedure, shortened: as §3

ducksalad = assay: Test B flooded paddy test; format: in vivo, Heteranthera limosa; conditions: 1000 g ai/ha, visual rating, scale 0 to 100 (0 no effect, 100 complete control), 13 to 15 days
Procedure, shortened: as §3

barnyardgrass [3] = assay: Test B flooded paddy test; format: in vivo, Echinochloa crus-galli; conditions: 1000 g ai/ha, visual rating, scale 0 to 100 (0 no effect, 100 complete control), 13 to 15 days
Procedure, shortened: as §3

[4] = 125 g ai/ha, 0 = no effect, 100 = complete control, preemergence
[5] = 500 g ai/ha, visual rating 0-100, 0 no effect, 100 complete control, preemergence

CCNC(=O)c1cccc(NC(=O)c2sc(C(C)(C)C)nc2CC)c1 [Compound 210]
Barnyardgrass plant response rating (0 to 100 scale) (barnyardgrass [1]; [4]): 70
Plant response rating, Barnyardgrass (barnyardgrass [1]; [5]): 90
Barnyardgrass plant response rating (barnyardgrass [1]; 125 g ai/ha): 20
Barnyardgrass plant response rating (barnyardgrass [1]; 500 g ai/ha): 40
Surinam Grass plant response rating (0 to 100 scale) (Surinam grass; [4]): 60
Plant response rating, Surinam Grass (Surinam grass; [5]): 70
Surinam Grass plant response rating (Surinam grass; 125 g ai/ha): 20
Surinam Grass plant response rating (Surinam grass; 500 g ai/ha): 30
Cocklebur plant response rating (0 to 100 scale) (cocklebur; [4]): 10
Plant response rating, Cocklebur (cocklebur; [5]): 40
Cocklebur plant response rating (cocklebur; 125 g ai/ha): 60
Cocklebur plant response rating (cocklebur; 500 g ai/ha): 90
Corn plant response rating (0 to 100 scale) (corn; [4]): 20
Plant response rating, Corn (corn; [5]): 70
Corn plant response rating (corn; 125 g ai/ha): 20
Corn plant response rating (corn; 500 g ai/ha): 60
Crabgrass, Large plant response rating (0 to 100 scale) (large crabgrass; [4]): 90
Plant response rating, Crabgrass, Large (large crabgrass; [5]): 90
Crabgrass, Large plant response rating (large crabgrass; 125 g ai/ha): 20
Crabgrass, Large plant response rating (large crabgrass; 500 g ai/ha): 20
Foxtail, Giant plant response rating (0 to 100 scale) (giant foxtail; [4]): 80
Plant response rating, Foxtail, Giant (giant foxtail; [5]): 100
Foxtail, Giant plant response rating (giant foxtail; 125 g ai/ha): 20
Foxtail, Giant plant response rating (giant foxtail; 500 g ai/ha): 30
Lambsquarters plant response rating (0 to 100 scale) (lambsquarters; [4]): 100
Plant response rating, Lambsquarters (lambsquarters; [5]): 100
Lambsquarters plant response rating (lambsquarters; 125 g ai/ha): 70
Lambsquarters plant response rating (lambsquarters; 500 g ai/ha): 80
Morningglory plant response rating (0 to 100 scale) (morningglory; [4]): 20
Plant response rating, Morningglory (morningglory; [5]): 30
Morningglory plant response rating (morningglory; 125 g ai/ha): 30
Morningglory plant response rating (morningglory; 500 g ai/ha): 70
Pigweed plant response rating (0 to 100 scale) (pigweed; [4]): 100
Plant response rating, Pigweed (pigweed; [5]): 100
Pigweed plant response rating (pigweed; 125 g ai/ha): 40
Pigweed plant response rating (pigweed; 500 g ai/ha): 70
Blackgrass plant response rating (blackgrass; 125 g ai/ha): 10
Blackgrass plant response rating (blackgrass; 500 g ai/ha): 30
Wheat plant response rating (wheat; 125 g ai/ha): 20
Wheat plant response rating (wheat; 500 g ai/ha): 20
Oat, Wild plant response rating (wild oat; 125 g ai/ha): 20
Oat, Wild plant response rating (wild oat; 500 g ai/ha): 20
Rice plant response rating (rice): 70
Sedge, Umbrella plant response rating [2]: 80
Ducksalad plant response rating (ducksalad): 80
Barnyardgrass plant response rating (barnyardgrass [3]): 80
